In patent publication US20240115416A1, “SEGMENTED EVA INTRAVAGINAL RINGS” (priority 2019, published 2024):

Assay: Pharmacokinetics after single intravenous bolus of E2 and P in sheep
Assay type: in vivo
Details: Dorset crossbred, plasma, E2 160 μg, P 10 mg, mean; for AUC(0-inf): n = 2; for clearance: n = 2, read-out: CL, total body clearance (converted); for half-life: n = 2, read-out: T1/2, terminal half-life (converted); for Vd: n = 2, read-out: Vz, volume of distribution based on terminal elimination phase
Excerpt: Standard noncompartmental PK analysis methods were used.

| AUC(0-inf) [ng·h/mL] | clearance [mL/min] | half-life [h] | Vd [L] | Compound |
| --- | --- | --- | --- | --- |
| 1.79 | 1490 | 2.22 | 287 | C[C@]12CC[C@@H]3c4ccc(O)cc4CC[C@H]3[C@@H]1CC[C@@H]2O [E2, 17β-estradiol] |
| 20 | 8330 | 2.75 | 1980 | CC(=O)[C@H]1CC[C@H]2[C@@H]3CCC4=CC(=O)CC[C@]4(C)[C@H]3CC[C@]12C [P, progesterone] |
